We go through 18 compounds from paper PMC7477874, “Targeting L-Proline Uptake as New Strategy for Anti-chagas Drug Development” (Frontiers in Chemistry, 2020).

Structures are written as SMILES. Values joined by “and” are separate entries in the source; they are usually repeats but may differ in a detail not shown here. Identical values can stand only once. “Also recorded” adds a separate entry of the source. Like-named read-outs stand apart in the source and are kept apart here. A value given as a limit tells only on which side of the number the result lay.

Data set [1] relates to T. cruzi epimastigotes (CL strain clone 14). As to the kind of experiment: Growth inhibition assay on T. cruzi epimastigotes. In kind it is cell-based, Trypanosoma cruzi. The settings on record: for Times more active than T4C: T. cruzi epimastigotes, IC50 relative to T4C (890 μM); for Effect on parasite growth at the maximum concentration: 100 μM. On the procedure: T. cruzi CL strain clone 14 epimastigotes (Brener and […], [1965]) were maintained in the exponential growth phase by subculturing every 48 h in Liver Infusion Tryptose (LIT) medium supplemented with 10% FCS (Vitrocell, Campinas, São Paulo, Brazil) at 28 °C. T. cruzi epimastigotes in the exponential growth phase (5.0-6.0 x 10^7 cells mL^-1) were cultured in fresh LIT medium. The cells were treated with different concentrations of drugs or not treated (negative control). A combination of Rotenone (60 μM) and Antimycin (0.5 μM) was used as a positive control for inhibition as previously described. (Magdaleno et al., [2009]) The cells (2.5 x 10^6 mL^-1) were transferred to 96-well culture plates and incubated at 28 °C. Cell proliferation was quantified by reading the optical density (OD) at 620 nm for 8 days. The OD was converted to cell density values (cells per mL) using a linear regression equation previously obtained under the same conditions. The concentration of compounds that inhibited 50% of parasite proliferation (IC50) was determined during the exponential growth phase (4 days) by fitting the data to a typical sigmoidal dose-response curve using OriginPro8. The compounds were evaluated in quadruplicate in each experiment. The results shown here correspond to three independent experiments. As a cell growth inhibition control, growth curves in which […] were added to the culture medium were run in parallel for all experiments.

For data set [2], the system named is Vero cells. As to the kind of experiment: Cytotoxicity assay on Vero cells (MTT). Format: cell-based, African green monkey. The settings on record: for IC50: Chlorocebus sabaeus, Vero, 48 h, MTT. Here is the method: To evaluate the analogs toxicity, Vero cells previously plated on 96 multi-well plate in DMEM 2% FBS and incubated for 48 h at 37 °C in a humid atmosphere containing 5% CO2, were incubated with […] of DMEM 2% FBS supplemented with each analog for 48 h. The concentration (μM) was different with each analog:
The viability of cells was measured by MTT dye (3-(4,5-Dimethylthiazol-2-yl)-2,5-diphenyltratazolium bromide, Sigma-Aldrich) colorimetric method. Benznidazole and DMSO were used as positive and negative controls, respectively. Data are expressed as means ± SD of the results of three independent assays of each condition.

Data set [3] relates to L-proline transporter. As to the kind of experiment: L-Proline transport competition assay in T. cruzi epimastigotes. In kind it is cell-based, Trypanosoma cruzi. The settings on record: 3.1 mM analog; for Proline uptake inhibition (in words): 0.31 mM L-proline. Here is the method: Parasites in exponential growth phase were washed three times by centrifugation and resuspended in phosphate buffered saline (PBS), pH 7.4. Cells were counted in a Neubauer chamber, adjusted with the same buffer to a final density of 200 × 10^6 cells/mL and distributed in aliquots of 100 μL (containing 20 × 10^6 cells each). Transport assays were initiated by the addition to the assay tubes of 100 μL of the desired dilution of L-proline in PBS in the presence of […] of L-[3H] proline. Unless otherwise specified, V0 was measured at 28 °C for 30 s by incorporation of 0.75 and 3 mM L-proline traced with 1 μCi of U-^14C-L-Pro (Perkin Elmer). In all cases, proline transport was stopped by addition of […] of cold 50 mM proline in PBS (pH 7.4), and rapid washing by centrifugation at 10,000x g for 2 min. Background values in each experiment were measured by simultaneous addition of radiolabeled L-proline and stop solution as previously described (Silber et al., [2002]). For the competition assays, the transport experiments were performed as described above using the L-Pro concentration corresponding to the Km (0.31 mM). Those conditions were chosen considering an inhibitory activity by structurally related compounds should be competitive, and so, should be evidenced by a change in the […] at L-Pro concentrations close to the Km. Non-competitive inhibitors, if any, should diminish Vmax, which is measured at 10 x Km L-Pro (3.1 mM) (Silber et al., [2002]). […] The analogs were assayed on T. cruzi epimastigotes incubated with proline at the transporter Km concentration (0.31 mM), and the analogs were assayed at concentration 10-fold higher (3.1 mM). […] The oleyl derivate (3k), with an unsaturated fatty tail, has a similar IC50 on T. cruzi epimastigotes compared to the cetyl analog (3j) showing no inhibition in terms of proline uptake (Table 2).  Figure 4 Proline uptake assay. Pro control = Proline control, Pro comp = L-Proline as competitor. 3i-k and 3n = proline level incubated (*p < 0.05) with selected analogs. Pro control (0.31 mM L-proline, [^3H] proline, PBS). Pro Comp (3.1 mM L-proline, [^3H] proline, PBS). Compounds 3i-k and 3n (0.31 mM L-proline, 3.1 mM analog 3x, [^3H] proline, PBS). Stop solution: 50 mM L-proline added after 30 s.

Data set [4] relates to T. cruzi epimastigotes (CL strain clone 14). The settings on record: cited from earlier work.
[5] abbreviates: Trypanosoma cruzi, 96 h, epimastigotes CL14, IC50 at 4 days, means (SD) from three independent experiments, max. concentration 100 μM, read-out: T. cruzi IC50.
Where [6] appears, read: epimastigotes CL14, IC50 at 4 days, means (SD) from three independent experiments, max. concentration 100 μM, read-out: T. cruzi IC50.

By IC50 is commonly meant the concentration that inhibits the measured activity by half. Usually melting point stands for the temperature, or range, at which the solid turns liquid.

As to `CCCCCCCCCCn1cc(CN2CCC[C@H]2C(=O)OC)nn1` [Compound 3i, Methyl ((1-Decyl-1H-1,2,3-Triazol-4-yl)Methyl)-L-Prolinate], in data set [1], the “Times more active than T4C” value was determined as 23. Also, the IC50 was less than 0.04 mM in data set [1] (setting [5]); < 0.05 mM and 0.038 mM and 0.039 mM in data set [1] (setting [6]); 43 µM in data set [2]. Further, the “Selectivity index (IC50 Vero cells / IC50 T. cruzi epimastigotes)” value in data set [2] is reported as 1.13. The “Proline uptake inhibition (in words)” value in data set [3] was “markedly reduction of the internalized proline”.

As for `COC(=O)[C@@H]1CCCN1Cc1cn(Cc2ccc3ccccc3c2)nn1` [Compound 3g, Methyl ((1-(Naphthalen-2-Ylmethyl)-1H-1,2,3-Triazol-4-yl)Methyl)-L-Prolinate], the melting point lay in the range of 64 to 64.9 °C. Further, in data set [1] (setting [5]), the IC50 was found to be 0.1 mM.

Take `CCOC(=O)Cn1cc(CN2CCC[C@H]2C(=O)OC)nn1` [Compound 3a, Methyl ((1-(2-Ethoxy-2-Oxoethyl)-1H-1,2,3-Triazol-4-yl)Methyl)-L-Prolinate]: the IC50 in data set [1] (setting [5]) was greater than 0.1 mM. For the same compound, the “Effect on parasite growth at the maximum concentration” value (shortened to “Effect on parasite growth”) in data set [1] (epimastigotes) was “did not affect the parasite growth; also recorded: inactive”.

Consider `COC(=O)[C@@H]1CCCN1Cc1cn(C/C=C(\C)CCCC(C)CCCC(C)CCCC(C)C)nn1` (stereo partly drawn) [Compound 3p, Methyl ((1-((E)-3,7,11,15-Tetramethylhexadec-2-en-1-yl)-1H-1,2,3-Triazol-4-yl)Methyl) -L-Prolinate], for which the concentration for half-maximal inhibition (IC50) in data set [1] (setting [5]) is 0.0483 mM; in data set [1] (setting [6]), 0.0697 ± 0.00217 mM.

Turning to `O=C(O)[C@@H]1CSCN1` [Compound T4C, L-thiazolidine-4-carboxylic acid], the IC50 in data set [4] (ref Magdaleno et al., 2009, read-out: IC50 on T. cruzi epimastigotes) was 890 µM.

Regarding `O=C(Cn1ccnc1[N+](=O)[O-])NCc1ccccc1` [Benznidazole], the IC50 in data set [4] (epimastigotes, read-out: T. cruzi IC50) was 7 µM.

`COC(=O)[C@@H]1CCCN1Cc1cn(CC=C(C)CCC=C(C)C)nn1` [Compound 3m, Methyl ((1-(3,7-Dimethylocta-2,6-Dien-1-yl)-1H-1,2,3-Triazol-4-yl)Methyl)-L-Prolinate]: the IC50 in data set [1] (setting [5]) was greater than 0.1 mM. The “Effect on parasite growth” value in data set [1] (epimastigotes) is “did not affect the parasite growth; also recorded: inactive”.

With `CCOC(=O)CCCCn1cc(CN2CCC[C@H]2C(=O)OC)nn1` [Compound 3b, Methyl ((1-(5-Ethoxy-5-Oxopentyl)-1H-1,2,3-Triazol-4-yl)Methyl)-L-Prolinate], the IC50 in data set [1] (setting [5]) was greater than 0.1 mM. In addition, in data set [1] (epimastigotes), the “Effect on parasite growth” value is “did not affect the parasite growth; also recorded: inactive”.

`CCCCCCCC/C=C\CCCCCCCCn1cc(CN2CCC[C@H]2C(=O)OC)nn1` [Compound 3k, Methyl (Z)-((1-(Octadec-9-en-1-yl)-1H-1,2,3-Triazol-4-yl)Methyl)-L-Prolinate]: the “Times more active than T4C” value in data set [1] is 22. The IC50 is less than 0.04 mM in data set [1] (setting [5]); < 0.05 mM and 0.0351 mM in data set [1] (setting [6]); 17 µM in data set [2]. In data set [2], the “Selectivity index (IC50 Vero cells / IC50 T. cruzi epimastigotes)” value came out at 0.43. The “% of Proline inh.” value in data set [3] (0.31 mM L-proline (Km), 30 s) turned out to be 0%. For the same compound, the “Proline uptake inhibition (in words)” value in data set [3] is on record as “no inhibition”.

`COC(=O)[C@@H]1CCCN1Cc1cn(C2CCCCC2)nn1` [Compound 3d, Methyl ((1-Cyclohexyl-1H-1,2,3-Triazol-4-yl)Methyl)-L-Prolinate]: the IC50 in data set [1] (setting [5]) is greater than 0.1 mM. Moreover, the “Effect on parasite growth” value in data set [1] (epimastigotes) is “did not affect the parasite growth; also recorded: inactive”.

For `COC(=O)[C@@H]1CCCN1Cc1cn(CCCc2ccccc2)nn1` [Compound 3e, Methyl ((1-(3-Phenylpropyl)-1H-1,2,3-Triazol-4-yl)Methyl)-L-Prolinate], the IC50 in data set [1] (setting [5]) was greater than 0.1 mM. The “Effect on parasite growth” value in data set [1] (epimastigotes) was “did not affect the parasite growth; also recorded: inactive”.

With `CCCCCCCCn1cc(CN2CCC[C@H]2C(=O)OC)nn1` [Compound 3h, Methyl ((1-Octyl-1H-1,2,3-Triazol-4-yl)Methyl)-L-Prolinate], the IC50 in data set [1] (setting [5]) was greater than 0.1 mM. The “Effect on parasite growth” value in data set [1] (epimastigotes) was “did not affect the parasite growth; also recorded: inactive”.

As for `COC(=O)[C@@H]1CCCN1Cc1cn(C/C=C(\C)CC/C=C(\C)CCC=C(C)C)nn1` [Compound 3n, Methyl ((1-((2E,6E)-3,7,11-Trimethyldodeca-2,6,10-Trien-1-yl)-1H-1,2,3-Triazol-4-yl)Methyl)-L-Prolinate], the “Times more active than T4C” value in data set [1] is on record as 18. For the same compound, the IC50 is less than 0.05 mM in data set [1] (setting [5]), 0.0483 ± 0.00129 mM in data set [1] (setting [6]) and 14 µM in data set [2]. In addition, the “Selectivity index (IC50 Vero cells / IC50 T. cruzi epimastigotes)” value in data set [2] was found to be 0.25. In addition, the “Proline uptake inhibition (in words)” value in data set [3] is listed as “complete inhibition; also recorded: markedly reduction of the internalized proline”.

Consider `COC(=O)[C@@H]1CCCN1Cc1cn(CC=Cc2ccccc2)nn1` [Compound 3f, Methyl ((1-Cinnamyl-1H-1,2,3-Triazol-4-yl)Methyl)-L-Prolinate], for which the IC50 in data set [1] (setting [5]) is greater than 0.1 mM. For the same compound, the “Effect on parasite growth” value in data set [1] (epimastigotes) is “did not affect the parasite growth; also recorded: inactive”.

On to `COC(=O)[C@@H]1CCCN1Cc1cn(Cc2ccccc2)nn1` [Compound 3c, Methyl ((1-Benzyl-1H-1,2,3-Triazol-4-yl)Methyl)-L-Prolinate], for which the IC50 in data set [1] (setting [5]) is greater than 0.1 mM. Moreover, the “Effect on parasite growth” value in data set [1] (epimastigotes) is “did not affect the parasite growth; also recorded: inactive”.

`CCCCCCCCCCCCCCCCCCCCn1cc(CN2CCC[C@H]2C(=O)OC)nn1` [Compound 3l, Methyl ((1-Icosyl-1H-1,2,3-Triazol-4-yl)Methyl)-L-Prolinate] displayed a melting point of 72.7 to 73.7 °C. Moreover, the IC50 in data set [1] (setting [5]) is 0.1 mM.

Take `COC(=O)[C@@H]1CCCN1Cc1cn(C/C=C(\C)CC/C=C(/C)CCC=C(C)C)nn1` [Compound 3o, Methyl ((1-((2E,6Z)-3,7,11-Trimethyldodeca-2,6,10-Trien-1-yl)-1H-1,2,3-Triazol-4-yl)Methyl)-L-Prolinate]: the IC50 in data set [1] (setting [5]) came to 0.0586 ± 0.00137 mM; in data set [1] (Trypanosoma cruzi, epimastigotes, unit given as mM, read-out: T. cruzi epimastigotes IC50 (as restated in the discussion)) it was 0.0596 mM.

Turning to `COC(=O)[C@@H]1CCCN1Cc1cn(CC=C(C)CCCC(C)CCCC(C)CCCC(C)C)nn1` (stereo partly drawn) [Compound 3q, Methyl ((1-(3,7,11,15-Tetramethylhexadec-2-en-1-yl)-1H-1,2,3-Triazol-4-yl)Methyl)-L-Prolinate], the IC50 in data set [1] (setting [5]) was found to be 0.0483 ± 0.00581 mM.
